Values after ≈ are worked out from the molar mass of the structure shown. Where two headings read alike, the source gives them in different places.
How the values were obtained:
Escherichia coli 16 = test: in vitro antibacterial test (MIC); format: cell-based
[1] = test system: Escherichia coli 205 R+TEM; test: in vitro antibacterial test (MIC); format: cell-based
[2] = test system: Klebsiella pneumoniae 327; test: in vitro antibacterial test (MIC); format: cell-based
[3] = test system: Neisseria gonorrhoeae 1317-4; test: in vitro antibacterial test (MIC); format: cell-based; conditions: 13174
Proteus morganii 1518 = test: in vitro antibacterial test (MIC); format: cell-based; conditions: Morganella morganii
Escherichia coli 205 = test: in vitro antibacterial test (MIC); format: cell-based
[4] = test system: Haemophilus influenzae NCTC 4560; test: in vitro antibacterial test (MIC); format: cell-based; conditions: NCTC4560
[5] = test system: Clostridium perfringens 194; test: microbe, parasite or virus in culture; format: cell-based
Proteus mirabilis 774 = test: in vitro antibacterial test (MIC); format: cell-based
Proteus mirabilis 1219 = test: in vitro antibacterial test (MIC); format: cell-based
[6] = test system: Staphylococcus aureus 2999i+p+; test: in vitro antibacterial test (MIC); format: cell-based
[7] = test system: Pseudomonas aeruginosa ATCC 12055; test: in vitro antibacterial test (MIC); format: cell-based; conditions: ATCC12055
[8] = test system: Enterobacter cloacae P 99; test: in vitro antibacterial test (MIC); format: cell-based; conditions: P99
Escherichia coli UB 1005 = test: in vitro antibacterial test (MIC); format: cell-based; conditions: UB1005; Escherichia coli UB 1005, in vitro
Text: (§1) Die Verbindungen der Formel I weisen wertvolle pharmakologische Eigenschaften auf, oder können als Zwischenprodukte zur Herstellung von solchen Verbindungen mit wertvollen pharmakologischen Eigenschaften verwendet werden. Verbindungen der Formel I, worin R1 Wasserstoff oder Methyl ist, Rz Hydroxybedeutet, R3 Carboxyl oder eine unter physiologischen Bedingungen spaltbare veresterte Carboxylgruppe bedeutet und R4 die unter Formel I angegebene Bedeutung hat, und pharmakologisch verwendbare Salze von solchen Verbindungen mit salzbildenden Gruppen haben antibakterielle Wirkungen. Beispielsweise sind sie in vitro gegen grampositive und gramnegative Kokken, z.B. Staphylococcus aureus, Streptococcus pyogenes, Streptococcus pneumoniae, Streptococcus faecalis, Neisseria meningitidis und Neisseria gonorrhoeae, und gegen gramnegative Stäbchenbakterien, wie Enterobacteriaceae, Haemophilus influenzae und Pseudomonas aeruginosa, und Anaerobier, z.B. Bacteroides sp., in minimalen Konzentrationen von ca. 0,01 bis ca. 64 µg/ml wirksam. In vivo, bei der systemischen Infektion der Maus, z.B. durch Staphylococcus aureus oder Streptococcus pyogenes, ergeben sich bei subkutaner oder oraler Applikation ED50 -Werte von ca. 0,3 bis ca. 30 mg/kg. Beispielsweise weisen Natrium-(5R,6S)-2-[3-(2-methyl-tetrazol-5-yl)-propyl]-6-hydroxymethyl-2-penem 3-carboxylat (Verbindung A) und (5R,65)-2-[3-(2-Methyl-1,3,4-oxadiazo1-5-yl)-propyl]-6-hydroxymethyl-2-penem-3-carbonsäure (Verbindung B) in dem genannten in-vitro-Test die folgenden Werte auf: […]

Escherichia coli DC 2 = test: in vitro antibacterial test (MIC); format: cell-based; conditions: DC2; Escherichia coli DC 2, in vitro
Text: as §1

Proteus morganii 2359 = test: in vitro antibacterial test (MIC); format: cell-based; conditions: Morganella morganii
[9] = test system: Pseudomonas aeruginosa K 799/61; test: in vitro antibacterial test (MIC); format: cell-based; conditions: K799/61
[10] = test system: Bacteroides fragilis L 01; test: in vitro antibacterial test (MIC); format: cell-based; conditions: L01
[11] = test system: Streptococcus faecalis D 3; test: in vitro antibacterial test (MIC); format: cell-based; conditions: Enterococcus faecalis, D3
Proteus rettgeri 856 = test: in vitro antibacterial test (MIC); format: cell-based; conditions: Providencia rettgeri
[12] = test system: Neisseria meningitidis 1316; test: in vitro antibacterial test (MIC); format: cell-based
[13] = test system: Streptococcus pneumoniae III/84; test: in vitro antibacterial test (MIC); format: cell-based
Serratia marcescens 344 = test: in vitro antibacterial test (MIC); format: cell-based
[14] = test system: Streptococcus pyogenes Aronson; test: in vitro antibacterial test (MIC); format: cell-based
[15] = test system: Staphylococcus aureus lOB; test: systemic infection of the mouse (ED50); format: in vivo, Maus; conditions: sc
Text: as §1, with “mg/kg.” for “mg/kg. Beispielsweise weisen Natrium-(5R,6S)-2-[3-(2-methyl-tetrazol-5-yl)-propyl]-6-hydroxymethyl-2-penem 3-carboxylat (Verbindung A) und (5R,65)-2-[3-(2-Methyl-1,3,4-oxadiazo1-5-yl)-propyl]-6-hydroxymethyl-2-penem-3-carbonsäure (Verbindung B) in dem genannten in-vitro-Test die folgenden Werte auf:”

[16] = test system: Staphylococcus aureus 10 B; test: in vitro antibacterial test (MIC); format: cell-based

Question: With `Cc1nnc(CCCC2=C(C(=O)O)N3C(=O)[C@H](CO)[C@H]3S2)o1` [Verbindung B, (5R,65)-2-[3-(2-Methyl-1,3,4-oxadiazo1-5-yl)-propyl]-6-hydroxymethyl-2-penem-3-carbonsäure] as the compound, how does the MIC (Escherichia coli 16; Escherichia coli 16, in vitro, read-out: MIC) read?
Answer: 16 µg/mL (≈ 49.2 µM)

Question: And the MIC [1]?
Answer: 4 µg/mL (≈ 12.3 µM)

Question: And the MIC ([2]; Klebsiella pneumoniae 327, in vitro, read-out: MIC)?
Answer: 2 µg/mL (≈ 6.15 µM)

Question: What about the MIC ([3]; Neisseria gonorrhoeae 1317-4, in vitro, read-out: MIC) of the same compound?
Answer: 0.01 µg/mL (≈ 0.0307 µM)

Question: What about the MIC (Proteus morganii 1518; Proteus morganii 1518, in vitro, read-out: MIC) of the same compound?
Answer: 8 µg/mL (≈ 24.6 µM)

Question: And the MIC (Escherichia coli 205; Escherichia coli 205, in vitro, read-out: MIC)?
Answer: 1 µg/mL (≈ 3.07 µM)

Question: What about the MIC ([4]; Haemophilus influenzae NCTC 4560, in vitro, read-out: MIC) of the same compound?
Answer: 2 µg/mL (≈ 6.15 µM)

Question: What about the MIC [5] of the same compound?
Answer: 0.1 µg/mL (≈ 0.307 µM)

Question: What about the MIC (Proteus mirabilis 774; Proteus mirabilis 774, in vitro, read-out: MIC) of the same compound?
Answer: 2 µg/mL (≈ 6.15 µM)

Question: And the MIC (Proteus mirabilis 1219; Proteus mirabilis 1219, in vitro, read-out: MIC)?
Answer: 4 µg/mL (≈ 12.3 µM)

Question: And the MIC ([6]; Staphylococcus aureus 2999i+p+, in vitro, read-out: MIC)?
Answer: 0.2 µg/mL (≈ 0.615 µM)

Question: What about the MIC ([7]; Pseudomonas aeruginosa ATCC 12055, in vitro, read-out: MIC) of the same compound?
Answer: > 32 µg/mL

Question: And the MIC [8]?
Answer: 16 µg/mL (≈ 49.2 µM)

Question: What about the MIC (Escherichia coli UB 1005) of the same compound?
Answer: 2 µg/mL (≈ 6.15 µM)

Question: What about the MIC (Escherichia coli DC 2) of the same compound?
Answer: 1 µg/mL (≈ 3.07 µM)

Question: And the MIC (Proteus morganii 2359; Proteus morganii 2359, in vitro, read-out: MIC)?
Answer: 2 µg/mL (≈ 6.15 µM)

Question: And the MIC [9]?
Answer: 2 µg/mL (≈ 6.15 µM)

Question: And the MIC ([10]; Bacteroides fragilis L 01, in vitro, read-out: MIC)?
Answer: 0.5 µg/mL (≈ 1.54 µM)

Question: And the MIC ([11]; Streptococcus faecalis D 3, in vitro, read-out: MIC)?
Answer: 32 µg/mL (≈ 98.4 µM)

Question: What about the MIC (Proteus rettgeri 856; Proteus rettgeri 856, in vitro, read-out: MIC) of the same compound?
Answer: 4 µg/mL (≈ 12.3 µM)

Question: And the MIC ([12]; Neisseria meningitidis 1316, in vitro, read-out: MIC)?
Answer: 0.05 µg/mL (≈ 0.154 µM)

Question: What about the MIC ([13]; Streptococcus pneumoniae III/84, in vitro, read-out: MIC) of the same compound?
Answer: 0.05 µg/mL (≈ 0.154 µM)

Question: And the MIC (Serratia marcescens 344; Serratia marcescens 344, in vitro, read-out: MIC)?
Answer: 16 µg/mL (≈ 49.2 µM)

Question: And the MIC ([14]; Streptococcus pyogenes Aronson, in vitro, read-out: MIC)?
Answer: 0.1 µg/mL (≈ 0.307 µM)

Question: What about the ED50 ([15]; mouse, systemic infection by Staphylococcus aureus lOB, subcutaneous application, read-out: ED50) of the same compound?
Answer: 0.3 to 30 mg/kg

Question: And the MIC ([16]; Staphylococcus aureus 10 B, in vitro, read-out: MIC)?
Answer: 0.2 µg/mL (≈ 0.615 µM)

Question: Which MIC (Escherichia coli 16; Escherichia coli, 16) does the source give for `Cn1nnc(CCCC2=C(C(=O)[O-])N3C(=O)[C@H](CO)[C@H]3S2)n1.[Na+]` [Verbindung A, Natrium-(5R,6S)-2-[3-(2-methyl-tetrazol-5-yl)-propyl]-6-hydroxymethyl-2-penem 3-carboxylat] here?
Answer: 32 µg/mL

Question: And the MIC [1]?
Answer: 8 µg/mL

Question: And the MIC ([2]; Klebsiella pneumoniae, 327)?
Answer: 4 µg/mL

Question: And the MIC ([3]; Neisseria gonorrhoeae)?
Answer: 0.01 µg/mL

Question: What about the MIC (Proteus morganii 1518; 1518) of the same compound?
Answer: 16 µg/mL

Question: And the MIC (Escherichia coli 205; Escherichia coli, 205)?
Answer: 4 µg/mL

Question: What about the MIC ([4]; Haemophilus influenzae) of the same compound?
Answer: 2 µg/mL

Question: What about the MIC [5] of the same compound?
Answer: 0.2 µg/mL

Question: And the MIC (Proteus mirabilis 774; Proteus mirabilis, 774)?
Answer: 4 µg/mL

Question: And the MIC (Proteus mirabilis 1219; Proteus mirabilis, 1219)?
Answer: 8 µg/mL

Question: What about the MIC ([6]; Staphylococcus aureus) of the same compound?
Answer: 0.2 µg/mL

Question: And the MIC ([7]; Pseudomonas aeruginosa)?
Answer: > 128 µg/mL

Question: What about the MIC [8] of the same compound?
Answer: 32 µg/mL

Question: And the MIC (Escherichia coli UB 1005)?
Answer: 8 µg/mL

Question: And the MIC (Escherichia coli DC 2)?
Answer: 2 µg/mL

Question: And the MIC (Proteus morganii 2359; 2359)?
Answer: 2 µg/mL

Question: And the MIC [9]?
Answer: 2 µg/mL

Question: What about the MIC ([10]; Bacteroides fragilis) of the same compound?
Answer: 0.5 µg/mL

Question: What about the MIC [11] of the same compound?
Answer: 32 µg/mL

Question: What about the MIC (Proteus rettgeri 856; 856) of the same compound?
Answer: 16 µg/mL

Question: What about the MIC ([12]; Neisseria meningitidis, 1316) of the same compound?
Answer: 0.01 µg/mL

Question: And the MIC ([13]; Streptococcus pneumoniae)?
Answer: 0.05 µg/mL

Question: What about the MIC (Serratia marcescens 344; Serratia marcescens, 344) of the same compound?
Answer: 64 µg/mL

Question: What about the MIC ([14]; Streptococcus pyogenes) of the same compound?
Answer: 0.2 µg/mL

Question: What about the ED50 ([15]; Staphylococcus aureus) of the same compound?
Answer: 3 to 10 mg/kg

Question: And the MIC ([16]; Staphylococcus aureus, 10B)?
Answer: 0.2 µg/mL

Reference: EP0109362A1, “Hetereocyclic compounds, process for their preparation, pharmaceutical compositions containing them and their use” (CIBA-GEIGY AG, priority 1982, dated 1984)
